Assay: molar heat capacity at constant pressure; xn = mol fraction of the nth substance listed
Conditions: 101.3 kPa, Liquid, Small sample (50 mg) DSC

OCCCCO [1,4-butanediol] + O
molar heat capacity at constant pressure [J/K/mol]
Conditions	x1 = 0.0218	x1 = 0.0478	x1 = 0.0789	x1 = 0.1175	x1 = 0.1665	x1 = 0.2305	x1 = 0.4441	x1 = 0.6426	x1 = 1
293.15 K	88.5	97.3	103.9	111.8	120.1	129	138.7	169.3	198.2
303.15 K	89.3	97.7	104.8	112.7	121.3	130.4	140.8	173.3	203.6
313.15 K	88.8	98.1	105.5	113.8	122.4	131.8	142.7	177.1	208.8
323.15 K	88.9	98.5	106.2	114.8	123.5	133.1	144.6	180.7	214
333.15 K	89.2	99.1	107.3	116	125	135.1	147.3	185.7	221.3
343.15 K	89.1	99.6	108.3	117.2	126.5	137	149.9	190.8	228.6
353.15 K	89.3	100.2	109.3	118.5	128.1	139.2	152.9	196.4	236.9
